The assay deals with Trypanosoma evansi protein-tyrosine phosphatase (PTPase). The following applies: competitive; substrate pNPP; 25 mM HEPES pH 7.3, 10% glycerol, no EDTA; 37 °C.

`[O]=[V]([OH])([OH])[OH]` [sodium orthovanadate] registered an inhibitory constant (Ki) of 200 µg/mL.
